# Results taken from publication PMC10539501 (Nature Communications, 2023).
# Starred links: 1 amine or outer side, 2 acyl side, 3 side chain; linkers in the order of their positions; H or OH if unused. Non-standard residues stand in square brackets, D forms with d. Residues, ends and D or L forms follow the SMILES beside them. X13 = CC[C@H](C)[C@H](NC(=S)[C@@H]1CCCN1[*:1])C(=O)[*:2]; X17 = CC[C@H](C)[C@H](N[*:1])C(=S)N1CCC[C@H]1C(=O)[*:2]; AlaΨ(CSNH)Ala = C[C@H](NC(=S)[C@H](C)N[*:1])C(=O)[*:2]; X11 = CC[C@H](C)[C@H](N[*:1])C(=S)N[C@@H](C)C(=O)[*:2]; X2 = CC(C)C[C@H](NC(=S)[C@@H](CC(C)C)N[*:1])C(=O)[*:2]; X9 = O=C([C@@H]1CCCN1C(=S)[C@H](Cc1ccccc1)N[*:1])[*:2]; X14 = C[C@H](N[*:1])C(=S)N[C@@H](Cc1ccccc1)C(=O)[*:2]; X15 = CC(C)C[C@@H](NC(=S)[C@H]1CCCN1[*:1])C(=O)[*:2]; X19 = CC(C)C[C@H](NC(=S)[C@@H]1CCCN1[*:1])C(=O)[*:2]; X18 = C[C@@H](N[*:1])C(=S)N1CCC[C@H]1C(=O)[*:2]
# What was measured:
# [1] = Octanol-water distribution coefficient (logD7.4); conditions: octanol/water, pH 7.4
# [2] = type: physicochemical
# [3] = PAMPA passive permeability; type: in vitro ADME;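 note: passive permeability across an artificial membrane in 96-well pre-coated PAMPA plates, which lack transporters and efflux systems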
# Experimental: Encouraged by this, the passive permeability of the analogs was evaluated using an artificial membrane (PAMPA), which measures permeability of compounds in the absence of transporters and efflux systems[32].
# 96-well BD Corning® pre-coated PAMPA plates were used following the supplier’s protocol, details in Supplementary Information.
# [4] = physchem; conditions: pH 7.4
# [5] = system: Caco-2 cells; assay: in vitro; type: in vitro ADME, human; conditions: Caco-2
# Experimental: (§1) The Caco-2 cell (HTB-37^TM from ATCC, procured from NCCS, Pune) monolayer was washed and pre-incubated at 37 °C and 5% CO2 for 30 min with HBSS-HEPES buffer containing 1% DMSO prior to experimentation. The assay was performed 21 days post-seeding of cells. TEER values were measured before starting and after the completion of the assay. Acceptor and donor well concentrations of the peptides and controls were assessed through LC-MS/MS.
# [6] = in vitro; type: in vitro ADME, human; conditions: human; for Papp A→B: Caco-2, Papp A-B avg
# Experimental: as §1
# 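Throughout, for Papp A-B + Elacridar avg: Caco-2 monolayers used 21 days after seeding in HBSS-HEPES buffer with 1% DMSO, donor and acceptor levels quantified by LC-MS/MS, TEER checked before and after.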
# 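Throughout, for Papp A-B avg (second block): Caco-2 monolayers used 21 days after seeding in HBSS-HEPES buffer with 1% DMSO, donor and acceptor levels quantified by LC-MS/MS, TEER checked before and after.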
# 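Throughout, for Papp A-B set 1 (second block): Caco-2 monolayers used 21 days after seeding in HBSS-HEPES buffer with 1% DMSO, donor and acceptor levels quantified by LC-MS/MS, TEER checked before and after.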
# 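Throughout, for Papp A-B set 2 (second block): Caco-2 monolayers used 21 days after seeding in HBSS-HEPES buffer with 1% DMSO, donor and acceptor levels quantified by LC-MS/MS, TEER checked before and after.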
% solubility [2] [%],logD [4],Papp ([3]; Pe Avg) [×10⁻⁶ cm/s],SMILES,further results
,,,C[C@@H]1NC(=O)[C@H](C)NC(=O)[C@@H](C)NC(=O)[C@H](C)NC(=S)[C@H](C)NC(=O)[C@H](C)NC1=O [9e],logD [1]: -0.54
,,,C[C@@H]1NC(=O)[C@H](C)NC(=O)[C@H](C)NC(=O)[C@@H](C)NC(=S)[C@H](C)NC(=O)[C@H](C)NC1=O [9f],logD [1]: -0.24
74,0.55,,CC[C@H](C)[C@@H]1NC(=O)[C@@H]2CCCN2C(=O)[C@H](Cc2ccccc2)NC(=O)[C@H](C)NC(=O)[C@H](C)NC(=S)[C@H]([C@@H](C)CC)NC(=O)[C@@H]2CCCN2C1=O [11a] (cyclo(AFPIP[X11])),Pe Avg [3]: 4.6e-06 cm/s; Papp ([3]; Pe (PAMPA vs logD7.4)): 4.67 ×10⁻⁶ cm/s
93,0.28,0.4,CC[C@H](C)[C@@H]1NC(=O)[C@@H]2CCCN2C(=O)[C@H]([C@@H](C)CC)NC(=O)[C@@H]2CCCN2C(=O)[C@H](Cc2ccccc2)NC(=O)[C@H](C)NC(=S)[C@H](C)NC1=O [11b] (cyclo(FPIPI[AlaΨ(CSNH)Ala])),Papp ([3]; Pe (PAMPA vs logD7.4)): 0.42 ×10⁻⁶ cm/s
76,0.43,1,CC[C@H](C)[C@@H]1NC(=O)[C@@H]2CCCN2C(=O)[C@H]([C@@H](C)CC)NC(=O)[C@@H]2CCCN2C(=O)[C@H](Cc2ccccc2)NC(=S)[C@H](C)NC(=O)[C@H](C)NC1=O [11c] (cyclo(A[X14]PIPI)),
85,0.33,0.4,CC[C@H](C)[C@@H]1NC(=O)[C@@H]2CCCN2C(=O)[C@H]([C@@H](C)CC)NC(=O)[C@@H]2CCCN2C(=S)[C@H](Cc2ccccc2)NC(=O)[C@H](C)NC(=O)[C@H](C)NC1=O [11d] (cyclo(AA[X9]IPI)),
65,0.58,0.8,CC[C@H](C)[C@@H]1NC(=O)[C@@H]2CCCN2C(=O)[C@H]([C@@H](C)CC)NC(=S)[C@@H]2CCCN2C(=O)[C@H](Cc2ccccc2)NC(=O)[C@H](C)NC(=O)[C@H](C)NC1=O [11e] (cyclo(AAF[X13]PI)),Papp ([3]; Pe (PAMPA vs logD7.4)): 0.83 ×10⁻⁶ cm/s
76,0.37,1.1,CC[C@H](C)[C@@H]1NC(=O)[C@@H]2CCCN2C(=S)[C@H]([C@@H](C)CC)NC(=O)[C@@H]2CCCN2C(=O)[C@H](Cc2ccccc2)NC(=O)[C@H](C)NC(=O)[C@H](C)NC1=O [11f] (cyclo(AAFP[X17]I)),
93,0.29,0.3,CC[C@H](C)[C@@H]1NC(=S)[C@@H]2CCCN2C(=O)[C@H]([C@@H](C)CC)NC(=O)[C@@H]2CCCN2C(=O)[C@H](Cc2ccccc2)NC(=O)[C@H](C)NC(=O)[C@H](C)NC1=O [11g] (cyclo(AAFPI[X13])),Papp ([3]; Pe (PAMPA vs logD7.4)): 0.35 ×10⁻⁶ cm/s
69,1.34,4.4,CC(C)C[C@@H]1NC(=O)[C@@H](CC(C)C)NC(=O)[C@H]2CCCN2C(=O)[C@H](CC(C)C)NC(=S)[C@@H](CC(C)C)NC(=O)[C@H](CC(C)C)NC(=O)[C@@H]2CCCN2C(=O)[C@@H](C)NC1=O [12a] (cyclo(L[dA]PL[X2][dP][dL])),
15,2.3,1.4,CC(C)C[C@@H]1NC(=O)[C@@H](CC(C)C)NC(=S)[C@H]2CCCN2C(=O)[C@H](CC(C)C)NC(=O)[C@@H](CC(C)C)NC(=O)[C@H](CC(C)C)NC(=O)[C@@H]2CCCN2C(=O)[C@@H](C)NC1=O [12c] (cyclo(L[dA]PL[dL]L[X15])),
25,1.82,8.9,CC(C)C[C@@H]1NC(=O)[C@@H]2CCCN2C(=O)[C@@H](C)NC(=O)[C@H](CC(C)C)NC(=S)[C@@H](CC(C)C)NC(=O)[C@H]2CCCN2C(=O)[C@H](CC(C)C)NC(=O)[C@@H](CC(C)C)NC1=O [12d] (cyclo(L[dL]L[dP][X2][dA]P)),
30,1.58,6.4,CC(C)C[C@@H]1NC(=O)[C@@H](CC(C)C)NC(=O)[C@H]2CCCN2C(=O)[C@H](CC(C)C)NC(=O)[C@@H](CC(C)C)NC(=O)[C@H](CC(C)C)NC(=O)[C@@H]2CCCN2C(=S)[C@@H](C)NC1=O [12f] (cyclo(L[dL]L[dP][dL]L[X18])),
46,1.59,10.2,CC(C)C[C@@H]1NC(=O)[C@@H](CC(C)C)NC(=O)[C@H]2CCCN2C(=O)[C@H](CC(C)C)NC(=O)[C@@H](CC(C)C)NC(=O)[C@H](CC(C)C)NC(=S)[C@@H]2CCCN2C(=O)[C@@H](C)NC1=O [12g] (cyclo(L[dA][X19][dL]L[dP][dL])),
,,,"C[C@H]1O[C@@H](O[C@H]2[C@@H](O)C[C@H](O[C@H]3[C@@H](O)C[C@H](O[C@H]4CC[C@@]5(C)[C@H](CC[C@@H]6[C@@H]5C[C@@H](O)[C@]5(C)[C@@H](C7=CC(=O)OC7)CC[C@]65O)C4)O[C@@H]3C)O[C@@H]2C)C[C@H](O)[C@@H]1O [Digoxin, reference compound]","Papp A-B + Elacridar avg [5]: 1.5e-06 cm/s; Papp A-B avg (second block) [5]: 7.2e-07 cm/s; Papp A-B set 1 (second block) [5]: 7.9e-07 cm/s; Papp A-B set 2 (second block) [5]: 6.5e-07 cm/s; Papp B-A + Elacridar avg [5]: 6.2e-06 cm/s; Papp B-A avg (second block) [5]: 2.95e-05 cm/s; Papp B-A set 1 (second block) [5]: 2.85e-05 cm/s; Papp B-A set 2 (second block) [5]: 3.04e-05 cm/s; Papp A→B [6]: 0.721 ×10⁻⁶ cm/s; Papp B→A ([6]; Caco-2, Papp B-A avg): 29.5 ×10⁻⁶ cm/s"
,,,"CC(C)NCC(O)COc1cccc2ccccc12 (stereo not shown) [Propranolol, reference compound]",Papp A-B avg (second block) [5]: 1.66e-05 cm/s; Papp A-B set 1 (second block) [5]: 1.728e-05 cm/s; Papp A-B set 2 (second block) [5]: 1.587e-05 cm/s; Papp B-A avg (second block) [5]: 3.41e-05 cm/s; Papp B-A set 1 (second block) [5]: 3.76e-05 cm/s; Papp B-A set 2 (second block) [5]: 3.07e-05 cm/s; Papp A→B [6]: 16.6 ×10⁻⁶ cm/s
,-2.88,,NCCCC[C@H](NC(=O)[C@@H](N)Cc1ccccc1)C(=O)O [compound 1],
,-2.56,,N[C@@H](Cc1ccccc1)C(=O)N[C@@H](CCC(=O)O)C(=O)O [compound 2] (H-Phe-Glu-OH),
,-2.22,,N[C@@H](Cc1ccccc1)C(=O)NCC(=O)O [compound 3] (H-Phe-Gly-OH),
,-1.28,,CC(C)[C@H](NC(=O)[C@@H](N)Cc1ccccc1)C(=O)O [compound 5] (H-Phe-Val-OH),
,-1.41,,CSCC[C@H](NC(=O)[C@@H](N)Cc1ccccc1)C(=O)O [compound 6] (H-Phe-Met-OH),
,-0.65,,N[C@@H](Cc1ccccc1)C(=O)N[C@@H](Cc1c[nH]c2ccccc12)C(=O)O [compound 7] (H-Phe-Trp-OH),
,,,"C[C@@H]1NC(=O)[C@H](C)NC(=O)[C@H](C)NC(=O)[C@@H](C)NC(=O)[C@H](C)NC1=O [compound 8, cyclo(-D-Ala-L-Ala4-)]",logD [1]: -1.46
,,,"C[C@@H]1NC(=O)[C@H](C)NC(=O)[C@H](C)NC(=O)[C@@H](C)NC(=O)[C@H](C)NC(=O)[C@H](C)NC1=O [compound 9, cyclo(-D-Ala-L-Ala5-)]",logD [1]: -2.48
